In patent US20070207093A1, “Hydrazone derivatives and uses thereof” (Linquagen Corp., priority 2005, published 2007) one finds inhibition data, which are given here for 20 compounds.

Holding throughout (type): cell-based
The target of one assay is T1, human TRPM5 ion channel (Homo sapiens, UniProt Q9NZQ8).
T1 construct: expressed in transfected cells
T1 sequence (Q9NZQ8 1-1165): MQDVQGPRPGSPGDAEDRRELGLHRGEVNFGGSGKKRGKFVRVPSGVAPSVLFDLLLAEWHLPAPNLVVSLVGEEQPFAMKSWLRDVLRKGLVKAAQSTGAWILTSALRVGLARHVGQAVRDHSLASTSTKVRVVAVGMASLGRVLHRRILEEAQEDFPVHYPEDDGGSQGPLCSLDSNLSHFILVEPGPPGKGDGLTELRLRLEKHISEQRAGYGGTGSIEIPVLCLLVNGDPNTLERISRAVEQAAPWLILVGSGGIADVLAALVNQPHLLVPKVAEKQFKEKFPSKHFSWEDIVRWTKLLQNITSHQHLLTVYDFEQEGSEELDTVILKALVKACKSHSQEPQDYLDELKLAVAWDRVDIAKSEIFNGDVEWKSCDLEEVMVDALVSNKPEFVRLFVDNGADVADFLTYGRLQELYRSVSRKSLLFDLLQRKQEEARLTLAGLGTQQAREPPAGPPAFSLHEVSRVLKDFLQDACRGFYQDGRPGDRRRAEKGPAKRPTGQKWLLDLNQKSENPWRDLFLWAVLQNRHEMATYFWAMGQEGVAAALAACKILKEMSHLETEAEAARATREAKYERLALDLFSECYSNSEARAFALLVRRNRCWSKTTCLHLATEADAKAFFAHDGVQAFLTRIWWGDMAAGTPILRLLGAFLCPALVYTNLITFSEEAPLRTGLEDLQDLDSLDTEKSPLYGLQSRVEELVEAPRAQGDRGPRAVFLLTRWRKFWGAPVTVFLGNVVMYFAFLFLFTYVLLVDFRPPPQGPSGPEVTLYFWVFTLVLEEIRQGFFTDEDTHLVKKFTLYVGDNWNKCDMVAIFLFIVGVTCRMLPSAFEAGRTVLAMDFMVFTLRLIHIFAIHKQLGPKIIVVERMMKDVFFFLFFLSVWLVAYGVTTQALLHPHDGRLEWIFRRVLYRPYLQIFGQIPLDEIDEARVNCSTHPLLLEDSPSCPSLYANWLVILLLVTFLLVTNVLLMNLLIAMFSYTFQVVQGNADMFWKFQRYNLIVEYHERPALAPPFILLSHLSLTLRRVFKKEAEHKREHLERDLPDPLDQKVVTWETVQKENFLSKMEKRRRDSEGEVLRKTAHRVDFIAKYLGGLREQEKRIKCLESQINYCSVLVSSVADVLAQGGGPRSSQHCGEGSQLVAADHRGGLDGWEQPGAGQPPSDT
In words: TRPM5 FLIPR membrane potential screening assay (ATP stimulation). To be noted: 10 μM compound; HEK293 cells stably expressing human TRPM5; 3 μM ATP stimulation; versus negative control wells; read-out: TRPM5 Activity (percent inhibition). The method, then: The activity of human TRPM5 ion channel was measured in live cells on a fluorescent imaging plate reader (FLIPR). The basis of the assay (shown in FIG. 1) is the calcium-dependent activation of the ion channel which occurs via by activation of a G-protein coupled receptor (GPCR). GPCR activation by an appropriate agonist causes a transient increase in […] Ca^2+ ion concentration which in turn causes the ion channel to open, letting in Na^+ ions. This influx causes a change in the membrane potential of the cell which can be monitored as a change in the fluorescent signal from voltage-dependent (membrane potential) fluorescent dyes.
For the screening assay, the human TRPM5 gene was cloned, put into HEK293 cells, and a stable, high expression clone was used for screening. Cells were grown in standard media at 37° C. The day before screening, the cells were removed from flasks and added to 384 well clear bottom plates (8K cells in 20 μL/well). On the assay day, 20 μL of membrane potential dye (Part No. R8123, Molecular Devices Corp.) was added to the cells and dye was allowed to be taken up, i.e., load, into the cells for 1 hr at 37° C. […] The assay was started by addition of 10 μL of solution from the compound plate into the cell plate. During this process, continuous fluorescent recordings were made simultaneously for all wells. After addition of the compound solution, the tips were automatically washed and a stimulation solution of 3 μM ATP (an agonist for an endogenous purinurgic GPCR, was added to all wells of the cell plate. The height of the response was calculated and percent inhibition values, versus negative control wells, was calculated for the test samples.
(§1) Unless otherwise indicated, the data in the table below were determined using the three assays described above, providing percent inhibition data at 10 μM.

The subject of assay [1] is GPCR-mediated calcium activation step. Put plainly: Calcium counterscreen (calcium sensitive dye, ATP stimulation). To be noted: Homo sapiens, 10 μM compound, same HEK293 TRPM5 cells, Calcium3 dye, read-out: Calcium Counterscreen (percent inhibition). The method, then: (§2) Two counterscreen assays were run on separate cell plates utilizing the same cells as described above. In the calcium counterscreen, the cells were loaded with a calcium sensitive dye (Calcium3 Dye, Part no. 8090, Molecular Devices Corp.) and stimulated by ATP to check for compounds that block the GPCR-mediated calcium activation step. In the KCl counterscreen, cells are stimulated with 10 mM KCl instead of ATP to check for compounds that inhibit the membrane potential response by virtue of being non-specific ion channel blockers.
as §1

The subject of assay [2] is membrane potential response (non-specific ion channel block). In words: KCl counterscreen (membrane potential dye, 10 mM KCl stimulation). To be noted: Homo sapiens; 10 μM compound; same HEK293 TRPM5 cells; 10 mM KCl instead of ATP; read-out: KC1 Counterscreen (percent inhibition). On the procedure:
as §2, §1
In general terms: Counterscreens check selectivity or assay interference.

The inhibition is the change of the read-out against control, counted positive when it falls.

As to `COC(=O)c1ccc(/N=N/C(=N\Nc2nc3ccccc3s2)C(C)C)cc1` [Example 1, Methyl 4-((E)-((Z)-1-(2-(benzo[d]thiazol-2-yl)hydrazono) -2-methylpropyl)diazenyl)benzoate], the inhibition at 10 µM was 60% at human TRPM5 ion channel, -11% in assay [1] and 20% in assay [2].

With `O=C(O)COc1ccc(Br)cc1/C=N/Nc1cccc2cccnc12` [Example 2, (E)-2-(4-Bromo-2-((2-(quinolin-8-yl)hydrazono)methyl)phenoxy)acetic acid], the inhibition at 10 µM at human TRPM5 ion channel is 87%; in assay [1], -10%; in assay [2], 70%.

`COc1ccc(/C=N/NC(=O)C2CC2c2ccccc2)cc1OC` (stereo not drawn) [Example 4, (E)-N′-(3,4-Dimethoxybenzylidene)-2-phenylcyclopropanecarbohydrazide]: the values for the inhibition at 10 µM (on human TRPM5 ion channel; in assay [1]; in assay [2]) were 99%, -1% and -4%, respectively.

`COc1ccc(/C=N/NC(=O)CC(CO)C2=CCCCC2)cc1` (stereo not drawn) [Example 5, (E)-3-Cyclohexenyl-4-hydroxy-N′-(4-methoxybenzylidene)butanehydrazide]: the inhibition at 10 µM on human TRPM5 ion channel was 96%; in assay [1], -7%; in assay [2] it was 29%.

Consider `CCCCCCCC(O)CCC(=O)N/N=C/c1ccc(OC)c(OC)c1` (stereo not drawn) [Example 6], for which the results for the inhibition at 10 µM (on human TRPM5 ion channel; in assay [1]; in assay [2]) were 93%, 0% and -15%, respectively.

Take `O=C(O)c1ccccc1N/N=C(\N=N\c1ccccc1)c1ccccc1` [Example 7, 2-((Z)-2-(Phenyl-((E)-phenyldiazenyl) -methylene)hydrazinyl)benzoic acid]: the inhibition at 10 µM at human TRPM5 ion channel was 83%; in assay [1] it was -17%; in assay [2], 81%.

As for `COc1ccc(/C=N/NC(=O)COc2cccc(C)c2)cc1OC` [Example 8, (E)-N′-(3,4-Dimethoxybenzylidene)-2-(m-tolyloxy)acetohydrazide], the inhibition at 10 µM at human TRPM5 ion channel is 76%; in assay [1], -3%; in assay [2] it was 7%.

Take `C=CCOc1ccc(/C=N/NC(=O)CSCc2cccc(Br)c2)cc1OC` [Example 9, (E)-N′-(4-(Allyloxy)-3-methoxybenzylidene)-2-(3-bromobenzylthio)acetohydrazide]: the inhibition at 10 µM on human TRPM5 ion channel was determined as 80%; in assay [1] it was 2%; in assay [2], 21%.

For `CC(C)c1ccc(/C=N/NC(=O)C2C3CCCCC32)cc1` (stereo not drawn) [Example 10, (E)-N′-(4-Isopropylbenzylidene)bicyclo[4.1.0.]heptane-7-carbohydrazide], the inhibition at 10 µM on human TRPM5 ion channel was 78%; in assay [1] it was -38%; in assay [2], -11%.

Take `CN1/C(=C\C=N\Nc2ccc([N+](=O)[O-])cc2)C(C)(C)c2ccccc21` [Example 11, (Z)-1,3,3-Trimethyl-2-((E)-2-(2-(4-nitrophenyl)hydrazono)ethylidene)indoline]: the inhibition at 10 µM at human TRPM5 ion channel was 67%; in assay [1], 23%; in assay [2] it was 14%.

`CCN(CC)c1ccc(/C=N/NC(=O)C2CC2c2ccccc2)c(O)c1` (stereo not drawn) [Example 12, (E)-N′-(4-(Diethylamino)-2-hydroxybenzylidene) -2-phenylcyclopropanecarbohydrazide]: the inhibition at 10 µM at human TRPM5 ion channel is 48%; in assay [1] it was -35%; in assay [2] it was -7%.

Consider `N#CC(C#N)=NNc1ccc(SC(F)(F)F)cc1` [Example 13, (4-(Trifluoromethylthio)penyl)carbonohydrazonoyldicyanide], for which the inhibition at 10 µM came to 78% at human TRPM5 ion channel, 2% in assay [1] and 65% in assay [2].

For the compound `Cc1ccc2c(c1)/C(=N/NC(=O)/C(=C\c1ccccc1)NC(=O)c1ccccc1)C(=O)N2C` [Example 14, N-((E)-3-((Z)-2-(1,5-Dimethyl-2-oxoindolin-3-ylidene)hydrazinyl)-3-oxo-1-phenylprop-1-en-2-yl)benzamide], the inhibition at 10 µM at human TRPM5 ion channel is 78%; in assay [1] it was -29%; in assay [2], 40%.

`CCCCn1cc(/C=N\Nc2ccccc2C(=O)O)c2ccccc21` [Example 15, (Z)-2-(2-((1-Butyl-1H-indol-3-yl)methylene)hydrazinyl)benzoic acid]: the results for the inhibition at 10 µM (at human TRPM5 ion channel; in assay [1]; in assay [2]) were 74%, 4% and 43%, respectively.

Turning to `C(=N\N(Cc1ccccc1)c1ccccc1)/c1ccncc1` [Example 16, (E)-4-((2-Benzyl-2-phenylhydrazono)methyl)pyridine], the inhibition at 10 µM at human TRPM5 ion channel is 74%; in assay [1], -6%; in assay [2] it was -2%.

In the case of `O=C(N/N=C\c1ccc[nH]1)C12CC3CC(CC(C3)C1)C2` [Example 17, (Z)-N′-((1H-Pyrrol-2-yl)methylene)tricyclo [3.3.1^3,7]decane-3-carbohydrazide], the inhibition at 10 µM on human TRPM5 ion channel was 40%; in assay [1], -13%; in assay [2], 8%.

As to `CCN(CCO)c1ccc(N/N=C2\C(=O)C=Cc3ccccc32)cc1` [Example 18, (Z)-1-(2-(4-(Ethyl-(2-hydroxyethyl)-amino)phenyl)hydrazono)naphthalen-2(1H)-one], the inhibition at 10 µM is 87% on human TRPM5 ion channel, -9% in assay [1] and 33% in assay [2].

For the compound `CN(/N=C/c1ccc(O)cc1O)c1ncc(Cl)cc1C(F)(F)F` [Example 19, (E)-4-((2-(5-Chloro-3-(trifluoromethyl)pyridini-2-yl)-2-2-methylhydrazono)methyl)benzene-1,3-diol], the inhibition at 10 µM on human TRPM5 ion channel is 65%; in assay [1], 5%; in assay [2], 36%.

Turning to `Cc1ccc(NCC(=O)N/N=C/c2ccc(N3CCOCC3)c([N+](=O)[O-])c2)cc1C` [Example 20, (E)-2-(3,4-Dimethylphenylamino)-N′-(4-morpholino-3-nitrobenzylidene)acetohydrazide], the inhibition at 10 µM is 70% on human TRPM5 ion channel, -3% in assay [1] and 16% in assay [2].

Turning to `O=[N+](O)c1ccc(N2CCCC2)cc1N/N=C1\CN2CCC1CC2` [Example 21], the inhibition at 10 µM is 51% at human TRPM5 ion channel, 6% in assay [1] and 42% in assay [2].
